Experimental data reported in patent US20030225152A1, “3-(Arylamino)methylene-1, 3-dihydro-2h-indol-2-ones as kinase inhibitors” (priority 2001, published 2003).
pIC50: −log10 of the molar value.

Experiments:
[1] = target: T1, cytoplasmic domain of the human VEGF receptor (VEGFR-2) (Homo sapiens, UniProt P35968); test: KDR Assay; format: biochemical; conditions: His-VEGFR-2; 3.6 μM ATP
T1 construct: The cytoplasmic domain of the human VEGF receptor (VEGFR-2) was expressed as a Histidine-tagged fusion protein; Histidine tag
T1 sequence (P35968 786-1356): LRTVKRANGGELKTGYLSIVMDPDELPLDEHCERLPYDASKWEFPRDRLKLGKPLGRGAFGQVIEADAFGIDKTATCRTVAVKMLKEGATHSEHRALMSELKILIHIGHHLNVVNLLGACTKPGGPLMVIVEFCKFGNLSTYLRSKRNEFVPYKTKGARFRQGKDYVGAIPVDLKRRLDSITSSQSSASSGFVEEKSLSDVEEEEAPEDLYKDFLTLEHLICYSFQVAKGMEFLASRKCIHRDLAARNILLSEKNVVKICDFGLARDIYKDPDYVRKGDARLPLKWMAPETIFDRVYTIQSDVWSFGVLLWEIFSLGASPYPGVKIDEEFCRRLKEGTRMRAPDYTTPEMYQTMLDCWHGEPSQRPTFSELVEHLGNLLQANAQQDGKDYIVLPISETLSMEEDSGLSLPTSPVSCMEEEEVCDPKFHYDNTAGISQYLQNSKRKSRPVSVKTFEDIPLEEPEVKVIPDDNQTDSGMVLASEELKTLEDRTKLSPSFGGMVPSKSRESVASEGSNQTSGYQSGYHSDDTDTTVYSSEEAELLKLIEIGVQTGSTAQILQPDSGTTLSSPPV
Procedure, shortened: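 IC50 taken from blank-corrected OD492 curves of an anti-phosphotyrosine peroxidase ELISA. Reaction: 10 min, 25 °C, 3.6 μM ATP, 50 mM Hepes pH 7.4 with 20 mM MgCl2, 0.1 mM MnCl2 and 5% DMSO, on poly-Glu-Tyr-coated wells, started with insect-cell-expressed His-VEGFR-2 cytoplasmic domain.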

[2] = tested on: VEGF induced increases in intracellular calcium levels in HUVEC (human umbilical vein endothelial cells); test: VEGF Stimulated Ca++ Signal in vitro (FLIPR); format: cell-based; conditions: VEGF 5 ng/mL; for pIC50: 0.01 to 10.0 μM
Procedure, shortened: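 IC50 values derive from % inhibition of the VEGF (5 ng/mL) calcium response, taken as max-min fluorescence at 516 nm in Fluo-4-loaded HUVEC. Compounds (0.1% DMSO final) were added 30 min before stimulation, at 10 μM or across 0.01–10.0 μM.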

Row | pIC50 [1] | SMILES | pIC50 [2] | inhibition at 10 µM ([2]; Homo sapiens) | pIC50 ([2]; Homo sapiens)
1 | 6.80 | CCN(CC)CCCOc1ccc(NC=C2C(=O)Nc3ccc(Cl)cc32)cc1 [Example 232, 5-Chloro-3-{[4-(3-diethylamino-propoxy)-phenylamino]-methylene}-1,3-dihydro-indol-2-one] | 6.07 | 97.1% | ≥ 6.00
2 | 6.72 | CCN(CC)CCCOc1ccc(NC=C2C(=O)Nc3ccc(F)cc32)cc1 [Example 233, 3-{[4-(3-Diethylamino-propoxy)-phenylamino]-methylene}-5-fluoro-1,3-dihydro-indol-2-one] |  | 96.9% | 
3 | 6.01 | O=C1Nc2ccc([N+](=O)[O-])cc2C1=CNc1ccc(N2CCOCC2)cc1 [Example 236, 3-[(4-Morpholin-4-yl-phenylamino)-methylene]-5-nitro-1,3-dihydro-indol-2-one] |  | 7.2% | 
4 | 6.15 | N#Cc1ccc2c(c1)C(=CNc1ccc(N3CCOCC3)cc1)C(=O)N2 [Example 237, 3-[(4-Morpholin-4-yl-phenylamino)-methylene]-2-oxo-2 ,3-dihydro-1 h-indole-5-carbonitrile] |  | 36.4% | 
5 | 6.64 | O=C1Nc2ccc(F)cc2C1=CNc1ccc(OCCCN2CCCCC2)cc1 [Example 240, 5-Fluoro-3-{[4-(3-piperidin-1-yl-propoxy)-phenylamino]-methylene}-1,3-dihydro-indol-2-one] |  | 98.3% | 
6 | 6.89 | O=C1Nc2ccc(Cl)cc2C1=CNc1ccc(OCCCN2CCCCC2)cc1 [Example 241, 5-Chloro-3-{[4-(3-piperidin-1-yl-propoxy)-phenylamino]-methylene}-1,3-dihydro-indol-2-one] |  | 95.8% | 6.00
7 | 7.15 | Cc1cccc2c1C(=CNc1ccc(NCCN3CCOCC3)cc1)C(=O)N2 [Example 242, 4-Methyl-3-{[4-(2-morpholin-4-yl-ethylamino)-phenylamino]-methylene}-1,3-dihydro-indol-2-one] |  | 95.8% | 
8 | 6.72 | O=C1Nc2ccc(F)cc2C1=CNc1ccc(NCCN2CCOCC2)cc1 [Example 244, 5-Fluoro-3-{[4-(2-morpholin-4-yl-ethylamino)-phenylamino]-methylene}-1,3-dihydro-indol-2-one] |  | 96% | 
9 | 6.85 | O=C1Nc2ccc(Cl)cc2C1=CNc1ccc(NCCN2CCOCC2)cc1 [Example 245, 5-Chloro-3-{[4-(2-morpholin-4-yl-ethylamino)-phenylamino]-methylene}-1,3-dihydro-indol-2-one] |  | 95.5% | 
10 | 6.20 | CCN(CC)CCCOc1ccc(NC=C2C(=O)Nc3ccccc32)cc1F [Example 248, 3-{[4-(3-Diethylamino-propoxy)-3-fluoro-phenylamino]-methylene}-1,3-dihydro-indol-2-one] | 6.15 |  | ≥ 6.00
11 | 6.36 | O=C1Nc2cccc(F)c2C1=CNc1ccc(OCCCN2CCCCC2)cc1 [Example 255, 4-Fluoro-3-{[4-(3-piperidin-1-yl-propoxy)-phenylamino]-methylene}-1,3-dihydro-indol-2-one] |  |  | 5.89
12 | 6.72 | Cc1cccc2c1C(=CNc1ccc(CN3CCCCC3)cc1)C(=O)N2 [Example 256, 4-Methyl-3-[(4-piperidin-1-ylmethyl-phenylamino)-methylene]-1,3-dihydro-indol-2-one] | 6.17 |  | ≥ 6.00
13 | 6.29 | O=C1Nc2cccc(F)c2C1=CNc1ccc(CN2CCCCC2)cc1 [Example 257, 4-Fluoro-3-[(4-piperidin-1-ylmethyl-phenylamino)-methylene]-1,3-dihydro-indol-2-one] |  |  | 5.79
14 | 6.25 | O=C1Nc2ccc(F)cc2C1=CNc1ccc(CN2CCCCC2)cc1 [Example 258, 5-Fluoro-3-[(4-piperidin-1-ylmethyl-phenylamino)-methylene]-1,3-dihydro-indol-2-one] | 6.14 |  | ≥ 6.00
15 | 6.52 | O=C1Nc2ccc(Cl)cc2C1=CNc1ccc(CN2CCCCC2)cc1 [Example 260, 5-Chloro-3-[(4-piperidin-1-ylmethyl-phenylamino)-methylene]-1,3-dihydro-indol-2-one] | 6.06 |  | ≥ 6.00
16 | 6.41 | O=C1Nc2cccc(F)c2C1=CNc1ccc(OCCN2CCCCC2)cc1 [Example 261, 4-Fluoro-3-{[4-(2-piperidin-1-yl-ethoxy)-phenylamino]-methylene}-1,3-dihydro-indol-2-one] |  |  | 5.97

Row | pIC50 [1] | SMILES | pIC50 [2] | inhibition at 10 µM ([2]; Homo sapiens) | pIC50 ([2]; Homo sapiens)
17 | 6.68 | O=C1Nc2ccc(Cl)cc2C1=CNc1ccc(OCCN2CCCCC2)cc1 [Example 262, 5-Chloro-3-{[4-(2-piperidin-1-yl-ethoxy)-phenylamino]-methylene}-1,3-dihydro-indol-2-one] | 6.06 |  | ≥ 6.00
18 | 6.21 | CCN(CC)CCOc1ccc(NC=C2C(=O)Nc3ccccc32)cc1 [Example 265, 3-{[4-(2-Diethylamino-ethoxy)-phenylamino]-methylene}-1,3-dihydro-indol-2-one] | 6.28 |  | ≥ 6.00
19 | 6.64 | CCN(CC)CCCOc1ccc(NC=C2C(=O)Nc3cccc(F)c32)cc1F [Example 267, 3-{[4-(3-Diethylamino-propoxy)-3-fluoro-phenylamino]-methylene}-4-fluoro-1,3-dihydro-indol-2-one] |  |  | 5.85
20 | 7.10 | COc1cccc(-c2ccc3c(c2)NC(=O)C3=CNc2ccc(N3CCN(C)CC3)cc2)c1 [Example 268, 6-(3-Methoxy-phenyl)-3-{[4-(4-methyl-piperazin-1-yl)-phenylamino]-methylene}-1,3-dihydro-indol-2-one] |  |  | ≤ 5.00
21 | 5.77 | COc1cccc(-c2ccc3c(c2)NC(=O)C3=CNc2ccc(N3CCOCC3)cc2)c1 [Example 269, 6-(3-Methoxy-phenyl)-3-{[4-morpholin-4-yl-phenylamino)-methylene]-1,3-dihydro-indol-2-one] |  |  | ≤ 5.00
22 | 6.48 | O=C1Nc2cccc(F)c2C1=CNc1ccc(OCCN2CCCC2)cc1 [Example 273, 4-Fluoro-3-{[4-(2-pyrrolidin-1-yl-ethoxy)-phenylamino]-methylene}-1,3-dihydro-indol-2-one] |  |  | 5.97
23 | 6.89 | O=C1Nc2ccc(Cl)cc2C1=CNc1ccc(OCCN2CCCC2)cc1 [Example 275, 5-Chloro-3-{[4-(2-pyrrolidin-1-yl-ethoxy)-phenylamino]-methylene}-1,3-dihydro-indol-2-one] | 6.21 |  | ≥ 6.00
24 | 6.66 | COc1cccc(-c2ccc3c(c2)NC(=O)C3=CNc2ccc(OCCCN3CCCCC3)cc2)c1 [Example 276, 6-(3-Methoxy-phenyl)-3-{[4-(3-piperidin-1-yl-propoxy)-phenylamino]-methylene}-1,3-dihydro-indol-2-one] |  |  | 5.06
25 | 6.60 | CCN(CC)CCCOc1ccc(NC=C2C(=O)Nc3cc(-c4cccc(OC)c4)ccc32)cc1 [Example 277, 3-{[4-(3-Diethylamino-propoxy)-phenylamino]-methylene}-6-(3-Methoxy-phenyl)-1,3-dihydro-indol-2-one] |  |  | ≤ 5.00
26 | 6.49 | CN1CCCC(COc2ccc(NC=C3C(=O)Nc4cccc(F)c43)cc2)C1 (stereo not drawn) [Example 281, 4-Fluoro-3-{[4-(1-methyl-piperidin-3-ylmethoxy)-phenylamino]-methylene}-1,3-dihydro-indol-2-one] | 6.14 |  | ≥ 6.00
27 | 6.82 | CN1CCCC(COc2ccc(NC=C3C(=O)Nc4ccc(Cl)cc43)cc2)C1 (stereo not drawn) [Example 283, 5-Chloro-3-{[4-(1-methyl-piperidin-3-ylmethoxy)-phenylamino]-methylene}-1,3-dihydro-indol-2-one] | 6.03 |  | ≥ 6.00
28 | 6.96 | O=C1Nc2ccc(Cl)cc2C1=CNc1ccc(CCN2CCCCC2)cc1 [Example 285, 5-Chloro-3-{[4-(2-piperidin-1-yl-ethyl)-phenylamino]-methylene}-1,3-dihydro-indol-2-one] | 6.25 |  | ≥ 6.00
29 | 6.96 | O=C1Nc2cccc(F)c2C1=CNc1ccc(CCN2CCCCC2)cc1 [Example 287, 4-Fluoro-3-{[4-(2-piperidin-1-yl-ethyl)-phenylamino]-methylene}-1,3-dihydro-indol-2-one] | 6.21 |  | ≥ 6.00
30 | 6.68 | O=C1Nc2ccc(Cl)cc2C1=CNc1ccc(CN2CCOCC2)cc1 [Example 291, 5-Chloro-3-[(4-morpholin-4-ylmethyl-phenylamino)-methylene]-1,3-dihydro-indol-2-one] | 6.18 |  | ≥ 6.00
31 | 6.33 | O=C1Nc2cccc(F)c2C1=CNc1ccc(CN2CCOCC2)cc1 [Example 293, 4-Fluoro-3-[(4-morpholin-4-ylmethyl-phenylamino)-methylene]-1,3-dihydro-indol-2-one] | 6.06 |  | ≥ 6.00
32 | 6.57 | O=C1Nc2cccc(F)c2C1=CNc1ccc(NCCCN2CCOCC2)cc1 [Example 301, 4-Fluoro-3-{[4-(3-morpholin-4-yl-propylamino)-phenylamino]-methylene}-1,3-dihydro-indol-2-one] | 6.11 |  | ≥ 6.00
